The target of the test is T1, recombinant human Meningioma Expressed Antigen 5 (MGEA5), also referred to as O-GlcNAcase (OGA) (Homo sapiens, UniProt O60502).
T1 construct: Full length OGA enzyme was purchased at OriGene (cat # TP322411); purchased OriGene TP322411
T1 sequence (O60502 1-916): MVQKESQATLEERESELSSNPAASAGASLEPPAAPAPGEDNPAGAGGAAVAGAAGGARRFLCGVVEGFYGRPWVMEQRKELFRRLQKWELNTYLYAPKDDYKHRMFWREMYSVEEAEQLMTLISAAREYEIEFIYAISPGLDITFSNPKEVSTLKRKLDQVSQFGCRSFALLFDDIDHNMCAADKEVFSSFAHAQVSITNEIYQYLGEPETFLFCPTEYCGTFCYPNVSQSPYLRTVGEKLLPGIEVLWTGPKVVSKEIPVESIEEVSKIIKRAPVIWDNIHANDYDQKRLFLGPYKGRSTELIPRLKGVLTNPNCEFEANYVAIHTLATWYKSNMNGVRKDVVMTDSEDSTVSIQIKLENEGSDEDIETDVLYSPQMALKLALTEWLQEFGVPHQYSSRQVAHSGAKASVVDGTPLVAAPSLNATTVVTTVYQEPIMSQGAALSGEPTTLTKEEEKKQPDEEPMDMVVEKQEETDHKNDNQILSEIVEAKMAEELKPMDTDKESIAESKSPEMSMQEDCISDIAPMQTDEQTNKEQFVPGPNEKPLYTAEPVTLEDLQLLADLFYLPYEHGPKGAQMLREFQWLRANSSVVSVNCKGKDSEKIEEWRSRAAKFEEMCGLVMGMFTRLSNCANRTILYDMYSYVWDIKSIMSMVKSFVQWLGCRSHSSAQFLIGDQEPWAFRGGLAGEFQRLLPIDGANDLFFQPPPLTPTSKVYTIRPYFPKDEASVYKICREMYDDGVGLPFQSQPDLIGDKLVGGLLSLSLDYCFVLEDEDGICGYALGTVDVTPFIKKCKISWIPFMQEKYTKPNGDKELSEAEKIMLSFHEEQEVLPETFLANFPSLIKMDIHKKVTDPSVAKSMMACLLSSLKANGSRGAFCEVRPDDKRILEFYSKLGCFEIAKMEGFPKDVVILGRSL
As to the kind of experiment: OGA biochemical assay: inhibition of FM-GlcNAc hydrolysis, fluorescence (protocol A 10 nM OGA, 1 h; protocol B 2 nM OGA, 6 h). The source says:
The assay is based on the inhibition of the hydrolysis of fluorescein mono-B-D-N-Acetyl-Glucosamine (FM-GlcNAc) (Mariappa et al. 2015, Biochem J 470:255) by the recombinant human Meningioma Expressed Antigen 5 (MGEA5), also referred to as 0-GlcNAcase (OGA). The hydrolysis FM-GlcNAc (Marker Gene technologies, cat # M1485) results in the formation of β-D-N-glucosamineacetate and fluorescein. The fluorescence of the latter can be measured at excitation wavelength 485 nm and emission wavelength 538 nm. An increase in enzyme activity results in an increase in fluorescence signal. Full length OGA enzyme was purchased at OriGene (cat # TP322411). The enzyme was stored in 25 mM Tris.HCl, pH 7.3, 100 mM glycine, 10% glycerol at −20° C. Thiamet G and GlcNAcStatin were tested as reference compounds (Yuzwa et al. 2008 Nature Chemical Biology 4:483; Yuzwa et al. 2012 Nature Chemical Biology 8:393). The assay was performed in 200 mM Citrate/phosphate buffer supplemented with 0.005% Tween-20. 35.6 g Na2HPO4 2 H2O (Sigma, # C0759) were dissolved in 1 L water to obtain a 200 mM solution. 19.2 g citric acid (Merck, #1.06580) was dissolved in 1 L water to obtain a 100 mM solution. pH of the sodiumphosphate solution was adjusted with the citric acid solution to 7.2. The buffer to stop the reaction consists of a 500 mM Carbonate buffer, pH 11.0. 734 mg FM-GlcNAc were dissolved in 5.48 mL DMSO to obtain a 250 mM solution and was stored at −20° C. OGA was used at a 10 nM (protocol A) or 2 nM (protocol B) concentration and FM-GlcNAc at a 100 uM final concentration. Dilutions were prepared in assay buffer.
50 nl of a compound dissolved in DMSO was dispensed on Black Proxiplate™ 384 Plus Assay plates (Perkin Elmer, #6008269) and 3 μl fl-OGA enzyme mix added subsequently. Plates were pre-incubated for 60 min at room temperature and then 2 μl FM-GlcNAc substrate mix added. […] Plates were briefly centrifuged for 1 min at 1000 rpm and incubate at room temperature for 1 h (10 nM OGA, protocol A) or 6 h (2 nM OGA, protocol B). To stop the reaction 5 μl STOP buffer were added and plates centrifuge again 1 min at 1000 rpm. Fluorescence was quantified in the Thermo Scientific Fluoroskan Ascent or the PerkinElmer EnVision with excitation wavelength 485 nm and emission wavelength 538 nm.
For analysis a best-fit curve is fitted by a minimum sum of squares method. From this an IC50 value and Hill coefficient was obtained. High control (no inhibitor) and low control (saturating concentrations of standard inhibitor) were used to define the minimum and maximum values.

[1] abbreviates: Enzymatic protocol B (2 nM OGA, 6 h), read-out: Enzymatic Emax (%).
The mark [2] stands for this setting: Enzymatic protocol B (2 nM OGA, 6 h), read-out: Enzymatic hOGA, pIC50 (converted).
Setting [3] is: Enzymatic protocol A (10 nM OGA, 1 h), read-out: Enzymatic hOGA, pIC50 (converted).
Setting [4] is: Enzymatic protocol B (2 nM OGA, 6 h).
Setting [5] is: Enzymatic protocol A (10 nM OGA, 1 h), read-out: Enzymatic Emax (%).

Where two headings read alike, the source gives them in different places.

On to `CC(c1ccc2c(c1)OCO2)N1CCCC(c2cc3ncccc3n2C)C1` (racemic) [Compound 44], for which the Emax (commonly the maximal effect, on the per cent scale that the assay sets) under setting [1] was found to be 99%. Under setting [2], the IC50 is 0.0832 µM.

Turning to `CC(=O)Nc1ncc(S(=O)(=O)N2CCCC(c3cc4ncccc4[nH]3)C2)s1` (single isomer, unassigned) [Compound 3], the “Enzymatic Emax (%)” value (Enzymatic protocol A (10 nM OGA, 1 h)) is 99%. Further, the IC50 under setting [3] was 0.562 µM.

For the compound `CC(=O)Nc1ncc(CN2CCCC(c3cc4cnccc4[nH]3)C2)s1` (single isomer, unassigned) [Compound 13], the maximal effect (Emax) under setting [1] worked out at 98.9%. Further, the IC50 under setting [2] was 0.0229 µM.

As for `CC(=O)Nc1ncc(CN2CCCC(c3cc4cnccc4[nH]3)C2)s1` (single isomer, unassigned) [Compound 14], the “Enzymatic Emax (%)” value under setting [4] stood at 96.3%. For the same compound, the IC50 under setting [2] was 0.676 µM.

For `CC(c1ccc2c(c1)OCO2)N1CCCC(c2cc3ncccc3[nH]2)C1` (single isomer, unassigned) [Compound 29], the “Enzymatic Emax (%)” value under setting [4] turned out to be 73.5%. Besides, under setting [2], the IC50 is 3.72 µM.

Turning to `CC(c1ccc2c(c1)OCO2)N1CCCC(c2cc3ncccc3[nH]2)C1` (single isomer, unassigned) [Compound 30], the “Enzymatic Emax (%)” value under setting [4] was found to be 75.1%. Moreover, the IC50 under setting [2] was 4.07 µM.

For `CC(c1ccc2c(c1)OCO2)N1CCCC(c2cc3ncccc3[nH]2)C1` (single isomer, unassigned) [Compound 32], the “Enzymatic Emax (%)” value under setting [4] worked out at 89.4%. In addition, the IC50 under setting [2] was 1.78 µM.

Take `CC(c1ccc2c(c1)OCCO2)N1CCCC(c2cc3ncccc3[nH]2)C1` (single isomer, unassigned) [Compound 34]: the Emax under setting [1] is 93.8%. Besides, the IC50 under setting [2] was 0.708 µM.

For the compound `CC(c1ccc2c(c1)OCCO2)N1CCCC(c2cc3ncccc3[nH]2)C1` (single isomer, unassigned) [Compound 35], the “Enzymatic Emax (%)” value under setting [4] stood at 87.7%. Besides, the IC50 under setting [2] is 2.45 µM.

Take `CC(c1ccc2c(c1)OCCO2)N1CCCC(c2cc3ncccc3[nH]2)C1` (single isomer, unassigned) [Compound 36]: the “Enzymatic Emax (%)” value under setting [4] came to 101.3%. The IC50 under setting [2] was 0.011 µM.

In the case of `CC(c1ccc2c(c1)OCCO2)N1CCCC(c2cc3ncccc3[nH]2)C1` (single isomer, unassigned) [Compound 37], under setting [4], the “Enzymatic Emax (%)” value amounted to 96.0%. Also, the IC50 under setting [2] was 0.955 µM.

For the compound `Cn1c(C2CCCN(Cc3ccc4nccnc4c3)C2)cc2ncccc21` (single isomer, unassigned) [Compound 42], under setting [4], the “Enzymatic Emax (%)” value was determined as 93.2%. Further, the IC50 under setting [2] is 0.776 µM.

`Cn1c(C2CCCN(Cc3ccc4nccnc4c3)C2)cc2ncccc21` (single isomer, unassigned) [Compound 43]: the “Enzymatic Emax (%)” value under setting [4] was found to be 46.5%. In addition, the IC50 under setting [2] was more than 10 µM.

As to `CC(c1ccc2c(c1)OCO2)N1CCCC(c2cc3ncccc3n2C)C1` (single isomer, unassigned) [Compound 45], the “Enzymatic Emax (%)” value under setting [4] was 100%. In addition, the IC50 under setting [2] is 0.0275 µM.

Take `CC(c1ccc2c(c1)OCO2)N1CCCC(c2cc3ncccc3n2C)C1` (single isomer, unassigned) [Compound 46]: under setting [4], the “Enzymatic Emax (%)” value is 24.2%. Besides, under setting [2], the IC50 was more than 10 µM.

For the compound `CC(c1ccc2c(c1)OCO2)N1CCCC(c2cc3ncccc3n2C)C1` (single isomer, unassigned) [Compound 47], the “Enzymatic Emax (%)” value under setting [4] stood at 85.8%. Further, the IC50 under setting [2] is 1.55 µM.

Consider `CC(c1ccc2c(c1)OCO2)N1CCCC(c2cc3ncccc3n2C)C1` (single isomer, unassigned) [Compound 48], for which, under setting [4], the “Enzymatic Emax (%)” value is 31.7%. Besides, the IC50 under setting [2] is more than 10 µM.

In the case of `CC(=O)Nc1ncc(S(=O)(=O)N2CCCC(c3nc4ncccc4[nH]3)C2)s1` (stereo not drawn) [Compound 1], the Emax under setting [5] turned out to be 75.9%. Besides, the IC50 under setting [3] was 1.86 µM.

Take `CC(=O)Nc1ncc(CN2CCCC(c3cc4ncccc4[nH]3)C2)s1` (stereo not drawn) [Compound 5]: the maximum response (Emax) by setting is: under setting [5], 99.7%; (comparative table, protocol not given, read-out: Emax (OGA inhibitory activity, comparison with 1,4-disubstituted piperidine comparator)) 99.7%. Further, the IC50 reads like this: under setting [3], 0.0257 µM; (comparative table, protocol not given, read-out: pIC50 (OGA inhibitory activity, comparison with 1,4-disubstituted piperidine comparator) (converted)) 0.0257 µM. In addition, the “OGA inhibitory activity compared with comparator” value (greater than the corresponding 1,4-disubstituted piperidine compound (comparator)) is given as ~1 order of magnitude.

Take `CC(=O)N(C)c1ncc(CN2CCCC(c3cc4ncccc4[nH]3)C2)s1` (stereo not drawn) [Compound 10]: the Emax under setting [1] turned out to be 90.1%. Besides, the IC50 under setting [2] is 1.02 µM.

With `CC(=O)Nc1ncc(CN2CCOC(c3cc4ncccc4[nH]3)C2)s1` (stereo not drawn) [Compound 27], under setting [1], the Emax came out at 77.3%. Under setting [2], the IC50 is 3.16 µM.

In the case of `c1cnc2cc(C3CCCN(Cc4ccc5c(c4)OCO5)C3)[nH]c2c1` (stereo not drawn) [Compound 38], the Emax under setting [5] was 99.9%. Moreover, under setting [3], the IC50 was 1.74 µM.

As to `Cn1c(C2CCCN(Cc3ccc4nccnc4c3)C2)cc2ncccc21` (stereo not drawn) [Compound 41], under setting [1], the Emax came out at 89.8%. Also, the IC50 under setting [2] is 1.26 µM.

For `Cn1c(C2CCCN(Cc3cc4c(cn3)OCCO4)C2)cc2ncccc21` (stereo not drawn) [Compound 50], the maximal effect (Emax) under setting [1] turned out to be 52.3%. Besides, the IC50 under setting [2] is 8.71 µM.

Turning to `Cn1c(C2CCCN(Cc3ccc4ccccc4n3)C2)cc2ncccc21` (stereo not drawn) [Compound 51], the Emax under setting [1] worked out at 56.7%. The IC50 under setting [2] was 7.76 µM.

`Cn1c(C2CCCN(Cc3ccc4nsnc4c3)C2)cc2ncccc21` (stereo not drawn) [Compound 52]: under setting [1], the Emax came out at 72.2%. For the same compound, the IC50 under setting [2] is 3.98 µM.

Take `Cn1c(C2CCCN(Cc3ccc4scnc4c3)C2)cc2ncccc21` (stereo not drawn) [Compound 53]: the maximum response (Emax) under setting [1] was 97.2%. Also, the IC50 under setting [2] is 0.832 µM.

Regarding `Cn1c(CN2CCCC(c3cc4ncccc4n3C)C2)cc2ccccc21` (stereo not drawn) [Compound 54], under setting [1], the maximum response (Emax) came out at 69.1%. The IC50 under setting [2] was 4.07 µM.

Consider `Cn1c(C2CCCN(Cc3cnc4c(c3)OCCO4)C2)cc2ncccc21` (stereo not drawn) [Compound 55], for which the Emax under setting [1] came out at 81.5%. Also, the IC50 under setting [2] was 2.19 µM.

With `Cn1c(C2CCCN(Cc3nc4ccccc4n3C)C2)cc2ncccc21` (stereo not drawn) [Compound 56], the Emax under setting [1] is 98%. Besides, the IC50 under setting [2] is 0.832 µM.

Regarding `CC(=O)Nc1ncc(CN2CCNC(c3cc4ncccc4[nH]3)C2)s1` (stereo not drawn) [Compound 57], the Emax under setting [1] was found to be 60.8%. Under setting [2], the IC50 was 6.61 µM.

As to `Cn1c(C2CCCN(Cc3ccc4cccnc4c3)C2)cc2ncccc21` (stereo not drawn) [Compound 63], the maximum response (Emax) under setting [1] was 23.9%. In addition, the IC50 under setting [2] was more than 10 µM.

For the compound `CC(=O)Nc1ncc(CN2CCCC(Cn3ccc4ncccc43)C2)s1` (stereo not drawn) [Compound 64], under setting [1], the Emax is 100%. Further, the IC50 under setting [2] was 0.00776 µM.
